These results are taken from PubChem BioAssay (NCI).

Each structure is given as a SMILES string. Values joined by “and” are separate entries in the source; they are usually repeats but may differ in a detail not shown here. Identical values can stand only once.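 Five concentrations, 48 hours, 96-well plates. At the GI50, growth is halved. At the TGI there is no net growth.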

As usually defined, the TGI is the concentration at which net growth stops. A high value points to less potent growth arrest. Broadly, the GI50 is the concentration that inhibits growth by half.

The first assay deals with OVCAR-8 ovarian. Description: DTP human tumour cell line panel, 48 h.
`C=C1C(=O)OC2CC(C)C3(O)CCC(=O)C3(C)CC12` (stereo not drawn) had a TGI of 70.3 µM.
The same measure, in the same setting: the result for `Cc1nc2sc3c(c2c(=O)[nH]1)CCCC3` reads more than 100 µM.
On to `O=C1NC(=O)/C(=C\c2ccccc2)C2=C1CCCC2`, for which the GI50 is 9.92 µM and the TGI worked out at 41.1 µM.
Consider `C#COc1cccc(Nc2c(C#N)cnc3ncc(NC(=O)CCl)cc23)c1`, for which the GI50 is 46 µM and the TGI was more than 62.5 µM.
For `CN(CCO)c1ccc(N2Cc3ccccc3OC3=C2C(=O)c2c(O)ccc(O)c2C3=O)cn1`, in that order: 0.307 µM and 3.49 µM.
`CC[C@H]1CN2CCc3cc(OC)c(OC)cc3[C@@H]2C[C@@H]1C[C@H]1NCCc2c1[nH]c1ccc(O)cc21`: the GI50 was 0.0323 µM and 0.0377 µM.
In the case of `CCCCCOc1ccc(/C=N/Nc2cc(C)nc3ccc(Br)cc23)cc1`, the GI50 was 2.13 µM and the TGI is 4.73 µM.
Take `CC(=O)Oc1ccccc1C(=O)Nc1ncc([N+](=O)[O-])s1`: the GI50 is 2.73 µM; the TGI was 25.1 µM and > 100 µM.
Regarding `CCN(Cc1ccccc1C)c1ccc(CO)c(Cl)c1`, the GI50 was 15.8 µM and the TGI came to 48.9 µM.
`O=C(O)CC(NC(=O)CP(=O)(O)O)C(=O)O` (stereo not drawn) had a TGI of more than 8110 µM.
Regarding `Cn1cc(C2=C(c3cccc(Br)c3)C(=O)NC2=O)c2ccccc21`, the GI50 was 12.6 µM and the TGI was more than 25 µM.
Consider `COc1ccc(CCNC(=O)c2ccc(NC3=C(Cl)C(=O)N(Cc4ccccc4)C3=O)cc2)cc1OC`, for which the GI50 was 11.9 µM and the TGI was more than 100 µM.
In turn, `O=CN1CCN(CC(O)CN2CCCCC2)CC1` (stereo not drawn) gave a TGI of more than 100 µM.

Another assay concerns 786-0 renal. Briefly: DTP human tumour cell line panel, 48 h.
`C=C1C(=O)OC2CC(C)C3(O)CCC(=O)C3(C)CC12` (stereo not drawn) registered a TGI of 59.7 µM.
In the case of `Cc1nc2sc3c(c2c(=O)[nH]1)CCCC3`, the TGI is more than 100 µM.
`O=C1NC(=O)/C(=C\c2ccccc2)C2=C1CCCC2`: the GI50 is 7.6 µM and the concentration for total growth inhibition (TGI) worked out at 20.2 µM.
For `C#COc1cccc(Nc2c(C#N)cnc3ncc(NC(=O)CCl)cc23)c1`, in that order: 36.6 µM and more than 62.5 µM.
In the same order, the values of `CN(CCO)c1ccc(N2Cc3ccccc3OC3=C2C(=O)c2c(O)ccc(O)c2C3=O)cn1` are 0.245 µM and 0.74 µM.
Take `CC[C@H]1CN2CCc3cc(OC)c(OC)cc3[C@@H]2C[C@@H]1C[C@H]1NCCc2c1[nH]c1ccc(O)cc21`: the GI50 was 0.0246 µM and 0.0421 µM.
In the case of `CCCCCOc1ccc(/C=N/Nc2cc(C)nc3ccc(Br)cc23)cc1`, the GI50 is 1.8 µM and the TGI stood at 3.43 µM.
For `CC(=O)Oc1ccccc1C(=O)Nc1ncc([N+](=O)[O-])s1`, the GI50 was 2.35 µM.
As for `CCN(Cc1ccccc1C)c1ccc(CO)c(Cl)c1`, the GI50 is 15 µM and the TGI is 30.9 µM.
With `O=C(O)CC(NC(=O)CP(=O)(O)O)C(=O)O` (stereo not drawn), the GI50 was 71 µM and the TGI was more than 6000 µM.
In the same order, the values of `Cn1cc(C2=C(c3cccc(Br)c3)C(=O)NC2=O)c2ccccc21` are 12.1 µM and more than 25 µM.
`COc1ccc(CCNC(=O)c2ccc(NC3=C(Cl)C(=O)N(Cc4ccccc4)C3=O)cc2)cc1OC`: the GI50 is 3.88 µM and the TGI was more than 100 µM.
Regarding `O=CN1CCN(CC(O)CN2CCCCC2)CC1` (stereo not drawn), the TGI was more than 100 µM.

The subject of a further assay is PC-3 prostate. Briefly: DTP human tumour cell line panel, 48 h.
Turning to `C=C1C(=O)OC2CC(C)C3(O)CCC(=O)C3(C)CC12` (stereo not drawn), the TGI was more than 100 µM.
As to `Cc1nc2sc3c(c2c(=O)[nH]1)CCCC3`, the TGI is more than 100 µM.
As to `O=C1NC(=O)/C(=C\c2ccccc2)C2=C1CCCC2`, the GI50 is 6.36 µM and the TGI was 35.5 µM.
As for `C#COc1cccc(Nc2c(C#N)cnc3ncc(NC(=O)CCl)cc23)c1`, the GI50 is 32.5 µM and the TGI is more than 62.5 µM.
For `CN(CCO)c1ccc(N2Cc3ccccc3OC3=C2C(=O)c2c(O)ccc(O)c2C3=O)cn1`, in that order: 0.296 µM and 0.888 µM.
For `CC[C@H]1CN2CCc3cc(OC)c(OC)cc3[C@@H]2C[C@@H]1C[C@H]1NCCc2c1[nH]c1ccc(O)cc21`, in that order: 0.0345 µM and 0.814 µM.
For `CCCCCOc1ccc(/C=N/Nc2cc(C)nc3ccc(Br)cc23)cc1`, in that order: 1.55 µM and 3.02 µM.
For the compound `CC(=O)Oc1ccccc1C(=O)Nc1ncc([N+](=O)[O-])s1`, the GI50 is 1.66 µM; the TGI is 6.42 µM and > 51.6 µM.
As for `CCN(Cc1ccccc1C)c1ccc(CO)c(Cl)c1`, the GI50 is 12.1 µM and the TGI is 25.4 µM.
Consider `O=C(O)CC(NC(=O)CP(=O)(O)O)C(=O)O` (stereo not drawn), for which the TGI is more than 10000 µM.
In the case of `Cn1cc(C2=C(c3cccc(Br)c3)C(=O)NC2=O)c2ccccc21`, the GI50 was 8.53 µM and the TGI was more than 25 µM.
Regarding `COc1ccc(CCNC(=O)c2ccc(NC3=C(Cl)C(=O)N(Cc4ccccc4)C3=O)cc2)cc1OC`, the GI50 is 6.02 µM and the TGI came to 27.8 µM.
Take `O=CN1CCN(CC(O)CN2CCCCC2)CC1` (stereo not drawn): the TGI was more than 100 µM.

The subject of a further assay is HOP-62 NSCLC. Briefly: DTP human tumour cell line panel, 48 h.
Turning to `C=C1C(=O)OC2CC(C)C3(O)CCC(=O)C3(C)CC12` (stereo not drawn), the TGI is more than 100 µM.
Still for that read-out and setting: the result for `Cc1nc2sc3c(c2c(=O)[nH]1)CCCC3` reads more than 100 µM.
On to `O=C1NC(=O)/C(=C\c2ccccc2)C2=C1CCCC2`, for which the GI50 was 7.31 µM and the TGI was determined as 25.8 µM.
With `C#COc1cccc(Nc2c(C#N)cnc3ncc(NC(=O)CCl)cc23)c1`, the GI50 was more than 62.5 µM and the TGI is more than 62.5 µM.
For the compound `CN(CCO)c1ccc(N2Cc3ccccc3OC3=C2C(=O)c2c(O)ccc(O)c2C3=O)cn1`, the GI50 was 0.508 µM and the TGI is 1.79 µM.
Turning to `CC[C@H]1CN2CCc3cc(OC)c(OC)cc3[C@@H]2C[C@@H]1C[C@H]1NCCc2c1[nH]c1ccc(O)cc21`, the GI50 is 0.0264 µM and 0.0298 µM; the TGI was 0.0748 µM and 0.0941 µM and 0.0488 µM.
As to `CCCCCOc1ccc(/C=N/Nc2cc(C)nc3ccc(Br)cc23)cc1`, the GI50 is 1.73 µM and the TGI was 3.37 µM.
For the compound `CC(=O)Oc1ccccc1C(=O)Nc1ncc([N+](=O)[O-])s1`, the GI50 was 4.45 µM and the TGI was more than 75.6 µM.
Consider `CCN(Cc1ccccc1C)c1ccc(CO)c(Cl)c1`, for which the GI50 was 6.39 µM and the TGI is 23.7 µM.
`O=C(O)CC(NC(=O)CP(=O)(O)O)C(=O)O` (stereo not drawn): the TGI turned out to be 3760 µM.
For `Cn1cc(C2=C(c3cccc(Br)c3)C(=O)NC2=O)c2ccccc21`, the GI50 is 18.3 µM and the TGI was more than 25 µM.
In the same order, the values of `COc1ccc(CCNC(=O)c2ccc(NC3=C(Cl)C(=O)N(Cc4ccccc4)C3=O)cc2)cc1OC` are 45 µM and more than 100 µM.
`O=CN1CCN(CC(O)CN2CCCCC2)CC1` (stereo not drawn) returned a TGI of more than 100 µM.

In the next assay the test system is COLO 205 colon. Description: DTP human tumour cell line panel, 48 h.
For the compound `C=C1C(=O)OC2CC(C)C3(O)CCC(=O)C3(C)CC12` (stereo not drawn), the TGI was more than 100 µM.
The same measure, in the same setting: then `Cc1nc2sc3c(c2c(=O)[nH]1)CCCC3`, with more than 100 µM.
In the case of `O=C1NC(=O)/C(=C\c2ccccc2)C2=C1CCCC2`, the GI50 is 3.86 µM and the TGI was found to be 14.6 µM.
Regarding `C#COc1cccc(Nc2c(C#N)cnc3ncc(NC(=O)CCl)cc23)c1`, the GI50 is 40.1 µM and the TGI was more than 62.5 µM.
For `CN(CCO)c1ccc(N2Cc3ccccc3OC3=C2C(=O)c2c(O)ccc(O)c2C3=O)cn1`, in that order: 0.133 µM and 0.302 µM.
With `CC[C@H]1CN2CCc3cc(OC)c(OC)cc3[C@@H]2C[C@@H]1C[C@H]1NCCc2c1[nH]c1ccc(O)cc21`, the GI50 was 0.019 µM and 0.0187 µM; the TGI was 0.0339 µM and 0.0347 µM and < 0.0117 µM.
Consider `CCCCCOc1ccc(/C=N/Nc2cc(C)nc3ccc(Br)cc23)cc1`, for which the GI50 was 1.96 µM and the TGI was determined as 3.72 µM.
Consider `CC(=O)Oc1ccccc1C(=O)Nc1ncc([N+](=O)[O-])s1`, for which the GI50 is 1.83 µM.
Regarding `CCN(Cc1ccccc1C)c1ccc(CO)c(Cl)c1`, the GI50 is 13.3 µM and the TGI was 28.2 µM.
With `O=C(O)CC(NC(=O)CP(=O)(O)O)C(=O)O` (stereo not drawn), the TGI was more than 10000 µM.
For the compound `Cn1cc(C2=C(c3cccc(Br)c3)C(=O)NC2=O)c2ccccc21`, the GI50 was 13.9 µM and the TGI is more than 25 µM.
`COc1ccc(CCNC(=O)c2ccc(NC3=C(Cl)C(=O)N(Cc4ccccc4)C3=O)cc2)cc1OC`: the GI50 was 3.94 µM and the TGI was more than 100 µM.
`O=CN1CCN(CC(O)CN2CCCCC2)CC1` (stereo not drawn) had a TGI of more than 100 µM.

The next assay concerns NCI-H23 lung. Description: DTP human tumour cell line panel, 48 h.
Regarding `C=C1C(=O)OC2CC(C)C3(O)CCC(=O)C3(C)CC12` (stereo not drawn), the TGI is more than 100 µM.
